The target in the test is T1, human PD-1 / PD-L1-Ig binding on Jurkat cell line over-expressing human PD-1 (Jurkat-PD-1) (Homo sapiens, UniProt Q15116).
T1 construct: expressed in transfected cells; host or cells: Jurkat
Kind of test: Jurkat-PD-1 Cell Binding High-Content Screening Assay (CBA). In kind it is cell-based. The note with it: Jurkat-PD-1 cells, PE-labeled PD-L1-Ig 20 nM final; read-out: Jurkat HPD1_PDL1 IC50. Summed up:
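Read-out: high-content imaging of PE-tagged PD-L1-Ig bound to Jurkat cells overexpressing human PD-1, after fixation with 4% paraformaldehyde and Hoechst 33342 nuclear staining. Ligand was used at 20 nM final for 1 hour, after a 2 h compound exposure at 37° C in serum-containing DMEM.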

*1 amine or outer side, *2 acyl side, *3 side chain or, on linkers, in order; H or OH if unused. Where a SMILES comes first, the peptide text is derived from it. Bridges are numbered along the chain shown (N, C = ends). [ ]: non-standard residue; d: D form. The star is where a group is joined. Phe(3,4-Cl2) = N[C@@H](Cc1ccc(Cl)c(Cl)c1)C(=O)O; Phe(4-COOH) = N[C@@H](Cc1ccc(C(=O)O)cc1)C(=O)O; Trp(7-Me) = Cc1cccc2c(C[C@H](N)C(=O)O)c[nH]c12; Bip = N[C@@H](Cc1ccc(-c2ccccc2)cc1)C(=O)O; Phe(3-Me) = Cc1cccc(C[C@H](N)C(=O)O)c1; γGlu = O=C(O)[C@H](CCC(=O)[*:2])N[*:1]; Val(3-OH) = CC(C)(O)[C@H](N)C(=O)O; 2Pal = N[C@@H](Cc1ccccn1)C(=O)O; 4Pal = N[C@@H](Cc1ccncc1)C(=O)O; 2Thi = N[C@@H](Cc1cccs1)C(=O)O; Cha = N[C@@H](CC1CCCCC1)C(=O)O; Carboxymethyl = O=C(O)C*; NMeAib = CNC(C)(C)C(=O)O; Orn = NCCC[C@H](N)C(=O)O; Pra = C#CC[C@H](N)C(=O)O; Dab = NCC[C@H](N)C(=O)O; Dap = NC[C@H](N)C(=O)O; Piv = CC(C)(C)C(=O)*

T1 sequence (Q15116 25-288): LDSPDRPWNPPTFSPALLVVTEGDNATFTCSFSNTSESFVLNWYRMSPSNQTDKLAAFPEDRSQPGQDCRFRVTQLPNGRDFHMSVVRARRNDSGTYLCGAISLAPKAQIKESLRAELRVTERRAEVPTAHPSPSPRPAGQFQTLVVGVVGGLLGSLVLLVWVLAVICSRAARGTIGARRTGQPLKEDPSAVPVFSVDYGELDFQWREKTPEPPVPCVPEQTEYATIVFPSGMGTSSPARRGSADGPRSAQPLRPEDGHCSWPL

For `Cc1cccc(C[C@@H]2NC(=O)[C@H](CC(=O)O)NC(=O)[C@H](Cc3ccc(OCC(=O)O)cc3)NC(=O)[C@H](CN)NC(=O)CSC[C@@H](C(=O)N[C@@H](CCN)C(N)=O)NC(=O)[C@H]([C@@H](C)O)NC(=O)[C@H](C(C)C)NC(=O)[C@H](CC3CCCCC3)NC(=O)[C@H](CCNC(=O)C(C)(C)C)NC(=O)[C@@H](CC(C)C)NC(=O)[C@H](CCN)NC(=O)[C@H](Cc3ccc(OCC(=O)O)cc3)NC(=O)[C@H](Cc3ccc(-c4ccccc4)cc3)NC(=O)[C@H](Cc3ccc(OCC(=O)O)cc3)NC2=O)c1` [Compound 2063] ({CH2CO}-[Dap]Y(Carboxymethyl)D[Phe(3-Me)]Y(Carboxymethyl)[Bip]Y(Carboxymethyl)[Dab][dL][Dab](Piv)[Cha]VTC[Dab]-NH2; thioether N-14), the IC50 (usually the concentration needed to halve the response being measured) was determined as 16.2 nM.
The same measure for `CC(C)C[C@H]1NC(=O)[C@H](CCCN)NC(=O)[C@H](CCC(=O)O)NC(=O)[C@H](Cc2ccc(-c3ccccc3)cc2)NC(=O)[C@H](C(C)C)NC(=O)[C@H](Cc2c[nH]c3ccccc23)NC(=O)[C@H](CC(=O)O)NC(=O)[C@H](Cc2ccc(OCC(=O)O)cc2)NC(=O)[C@H](Cc2ccc(OCC(=O)O)cc2)NC(=O)CSC[C@@H](C(=O)N[C@@H](C)C(N)=O)NC(=O)[C@H]([C@@H](C)O)NC(=O)[C@H](C(C)C)NC(=O)[C@H](Cc2ccc(O)cc2)NC(=O)[C@H](CCN)NC1=O` [Compound 1688] ({CH2CO}-Y(Carboxymethyl)Y(Carboxymethyl)DWV[Bip]E[Orn][dL][Dab]YVTCA-NH2; thioether N-14): 633 nM; for `CC(C)[C@@H]1NC(=O)[C@H](Cc2c[nH]c3ccccc23)NC(=O)[C@H](CC(=O)O)NC(=O)[C@H](Cc2ccc(C(=O)O)cc2)NC(=O)[C@H](Cc2ccncc2)NC(=O)CSC[C@@H](C(=O)N[C@@H](C)C(N)=O)NC(=O)[C@H]([C@@H](C)O)NC(=O)[C@H](C(C)C)NC(=O)[C@H](CC2CCCCC2)NC(=O)[C@H](CCN)NC(=O)[C@@H](Cc2ccc(O)cc2)NC(=O)[C@H](CCCN)NC(=O)[C@H](CCC(=O)O)NC(=O)[C@H](Cc2ccc(-c3ccccc3)cc2)NC1=O` [Compound 1445] ({CH2CO}-[4Pal][Phe(4-COOH)]DWV[Bip]E[Orn][dY][Dab][Cha]VTCA-NH2; thioether N-14): 19.5 nM.
The same measure for `Cc1cccc2c(C[C@@H]3NC(=O)[C@H](CC(=O)O)NC(=O)[C@H](Cc4ccc(OCC(=O)O)cc4)NC(=O)[C@H](CN)NC(=O)CSC[C@@H](C(=O)N[C@@H](CCN)C(N)=O)NC(=O)[C@H]([C@@H](C)O)NC(=O)[C@H](C(C)C)NC(=O)[C@H](CC4CCCCC4)NC(=O)[C@H](CCN)NC(=O)[C@@H](CC(C)C)NC(=O)[C@H](CCCN)NC(=O)[C@H](C(C)C)NC(=O)[C@H](Cc4ccc(-c5ccccc5)cc4)NC(=O)[C@H](C(C)C)NC3=O)c[nH]c12` [Compound 2018] ({CH2CO}-[Dap]Y(Carboxymethyl)D[Trp(7-Me)]V[Bip]V[Orn][dL][Dab][Cha]VTC[Dab]-NH2; thioether N-14): 335 nM; for `Cc1cccc(C[C@@H]2NC(=O)[C@H](CC(=O)O)NC(=O)[C@H](Cc3ccc(OCC(=O)O)cc3)NC(=O)[C@H](CN)NC(=O)CSC[C@@H](C(=O)N[C@@H](CCN)C(N)=O)NC(=O)[C@H](CCNC(=O)C(C)(C)C)NC(=O)[C@H](C(C)C)NC(=O)[C@H](CC3CCCCC3)NC(=O)[C@H](CCN)NC(=O)[C@@H](CC(C)C)NC(=O)[C@H](CCCN)NC(=O)[C@H](Cc3ccc(O)cc3)NC(=O)[C@H](Cc3ccc(-c4ccccc4)cc3)NC(=O)[C@H](Cc3ccc(O)cc3)NC2=O)c1` [Compound 2044] ({CH2CO}-[Dap]Y(Carboxymethyl)D[Phe(3-Me)]Y[Bip]Y[Orn][dL][Dab][Cha]V[Dab](Piv)C[Dab]-NH2; thioether N-14): 9.7 nM; for `C#CC[C@H](NC(=O)CC[C@H](NC(=O)[C@@H]1CSCC(=O)N[C@@H](CN)C(=O)N[C@@H](Cc2ccc(OCC(=O)O)cc2)C(=O)N[C@@H](CC(=O)O)C(=O)N[C@@H](Cc2cccc(C)c2)C(=O)N[C@@H](Cc2ccc(OCC(=O)O)cc2)C(=O)N[C@@H](Cc2ccc(-c3ccccc3)cc2)C(=O)N[C@@H](Cc2ccc(OCC(=O)O)cc2)C(=O)N[C@@H](CCCN)C(=O)N[C@H](CC(C)C)C(=O)N[C@@H](CCN)C(=O)N[C@@H](CC2CCCCC2)C(=O)N[C@@H](C(C)C)C(=O)N[C@@H]([C@@H](C)O)C(=O)N1)C(=O)O)C(N)=O` [Compound 1804] ({CH2CO}-[Dap]Y(Carboxymethyl)D[Phe(3-Me)]Y(Carboxymethyl)[Bip]Y(Carboxymethyl)[Orn][dL][Dab][Cha]VTC[γGlu][Pra]-NH2; thioether N-14): 6.6 nM.
Take `CC(C)C[C@H]1NC(=O)[C@H](CCCN)NC(=O)[C@H](CCC(=O)O)NC(=O)[C@H](Cc2ccc(-c3ccccc3)cc2)NC(=O)[C@H](C(C)C)NC(=O)[C@H](Cc2c[nH]c3ccccc23)NC(=O)[C@H](CC(=O)O)NC(=O)[C@H](Cc2ccc(OCC(=O)O)cc2)NC(=O)[C@H](CN)NC(=O)CSC[C@@H](C(=O)N[C@@H](C)C(N)=O)NC(=O)[C@H]([C@@H](C)O)NC(=O)[C@H](C(C)C)NC(=O)[C@H](Cc2cccc3ccccc23)NC(=O)[C@H](CCN)NC1=O` [Compound 1474]: the IC50 was determined as 68.6 nM.
The same measure for `CC(C)C[C@H]1NC(=O)[C@H](CCCN)NC(=O)[C@H](CCC(=O)O)NC(=O)[C@H](Cc2ccc(-c3ccccc3)cc2)NC(=O)[C@H](C(C)C)NC(=O)[C@H](Cc2c[nH]c3ccccc23)NC(=O)[C@H](CC(=O)O)NC(=O)[C@H](Cc2cccs2)NC(=O)[C@H](Cc2ccccc2)NC(=O)CSC[C@@H](C(=O)N[C@@H](C)C(N)=O)NC(=O)[C@H]([C@@H](C)O)NC(=O)[C@H](C(C)C)NC(=O)[C@H](CC2CCCCC2)NC(=O)[C@H](CCN)NC1=O` [Compound 2191] ({CH2CO}-F[2Thi]DWV[Bip]E[Orn][dL][Dab][Cha]VTCA-NH2; thioether N-14): 59.5 nM; for `CC(C)C[C@H]1NC(=O)[C@H](CCCN)NC(=O)[C@H](C(C)C)NC(=O)[C@H](Cc2ccc(-c3ccccc3)cc2)NC(=O)[C@H](C(C)C)NC(=O)[C@H](Cc2c[nH]c3ccccc23)NC(=O)[C@H](CC(=O)O)NC(=O)[C@H](Cc2ccncc2)NC(=O)[C@H](CN)NC(=O)CSC[C@@H](C(=O)N[C@@H](C)C(N)=O)NC(=O)[C@H]([C@@H](C)O)NC(=O)[C@H](C(C)C)NC(=O)[C@H](CC2CCCCC2)NC(=O)[C@H](Cc2cnc[nH]2)NC1=O` [Compound 1611]: 9.6 nM.
As to `CC(C)C[C@H]1NC(=O)[C@H](CCCN)NC(=O)[C@H](C(C)C)NC(=O)[C@H](Cc2ccc(-c3ccccc3)cc2)NC(=O)[C@H](C(C)C)NC(=O)[C@H](Cc2c[nH]c3ccccc23)NC(=O)[C@H](CC(=O)O)NC(=O)[C@H](Cc2ccc(C(=O)O)cc2)NC(=O)[C@H](Cc2ccc(OCC(=O)O)cc2)NC(=O)CSC[C@@H](C(=O)N[C@@H](C)C(N)=O)NC(=O)[C@H](CN)NC(=O)[C@H](C(C)C)NC(=O)[C@H](CC2CCCCC2)NC(=O)[C@H](CCN)NC1=O` [Compound 1739] ({CH2CO}-Y(Carboxymethyl)[Phe(4-COOH)]DWV[Bip]V[Orn][dL][Dab][Cha]V[Dap]CA-NH2; thioether N-14), the IC50 worked out at 9.9 nM.
Turning to `CC(C)C[C@H]1NC(=O)[C@H](CCCN)NC(=O)[C@H](CCC(=O)O)NC(=O)[C@H](Cc2ccc(-c3ccccc3)cc2)NC(=O)[C@H](C(C)C)NC(=O)[C@H](Cc2ccccn2)NC(=O)[C@H](CC(=O)O)NC(=O)[C@H](Cc2ccc(OCC(=O)O)cc2)NC(=O)[C@H](CN)NC(=O)CSC[C@@H](C(=O)N[C@@H](C)C(N)=O)NC(=O)[C@H]([C@@H](C)O)NC(=O)[C@H](C(C)C)NC(=O)[C@H](CC2CCCCC2)NC(=O)[C@H](CCN)NC1=O` [Compound 2154] ({CH2CO}-[Dap]Y(Carboxymethyl)D[2Pal]V[Bip]E[Orn][dL][Dab][Cha]VTCA-NH2; thioether N-14), the IC50 came out at 27.9 nM.
With `Cc1cccc(C[C@@H]2NC(=O)[C@H](CC(=O)O)NC(=O)[C@H](Cc3ccc(C(=O)O)cc3)NC(=O)[C@H](Cc3ccncc3)NC(=O)CSC[C@@H](C(=O)N[C@@H](CO)C(N)=O)NC(=O)[C@H]([C@@H](C)O)NC(=O)[C@H](C(C)C)NC(=O)[C@H](CC3CCCCC3)NC(=O)[C@H](CCN)NC(=O)[C@@H](CC(C)C)NC(=O)[C@H](CCCN)NC(=O)[C@H](Cc3ccc(OCC(=O)O)cc3)NC(=O)[C@H](Cc3ccc(-c4ccccc4)cc3)NC(=O)[C@H](Cc3ccc(OCC(=O)O)cc3)NC2=O)c1` [Compound 2310] ({CH2CO}-[4Pal][Phe(4-COOH)]D[Phe(3-Me)]Y(Carboxymethyl)[Bip]Y(Carboxymethyl)[Orn][dL][Dab][Cha]VTCS-NH2; thioether N-14), the IC50 was found to be 7.6 nM.
Take `Cc1cccc(C[C@@H]2NC(=O)[C@H](CC(=O)O)NC(=O)[C@H](Cc3ccc(C(=O)O)cc3)NC(=O)C(C)(C)N(C)C(=O)CSC[C@@H](C(=O)N[C@@H](CCN)C(N)=O)NC(=O)[C@H](CCC(=O)O)NC(=O)[C@H](C(C)(C)O)NC(=O)[C@H](CC3CCCCC3)NC(=O)[C@H](CCN)NC(=O)[C@@H](CC(C)C)NC(=O)[C@H](CCCN)NC(=O)[C@H](Cc3ccc(OCC(=O)O)cc3)NC(=O)[C@H](Cc3ccc(-c4ccccc4)cc3)NC(=O)[C@H](Cc3ccc(OCC(=O)O)cc3)NC2=O)c1` [Compound 2689] ({CH2CO}-[NMeAib][Phe(4-COOH)]D[Phe(3-Me)]Y(Carboxymethyl)[Bip]Y(Carboxymethyl)[Orn][dL][Dab][Cha][Val(3-OH)]EC[Dab]-NH2; thioether N-14): the IC50 is 411 nM.
The same measure for `CC(C)C[C@H]1NC(=O)[C@H](CCCN)NC(=O)[C@H](CCC(=O)O)NC(=O)[C@H](Cc2ccc(-c3ccccc3)cc2)NC(=O)[C@H](C(C)C)NC(=O)[C@H](Cc2c[nH]c3ccccc23)NC(=O)[C@H](CC(=O)O)NC(=O)[C@H](Cc2ccc(OCC(=O)O)cc2)NC(=O)[C@H](CN)NC(=O)CSC[C@@H](C(=O)N[C@@H](C)C(N)=O)NC(=O)[C@H]([C@@H](C)O)NC(=O)[C@H](C(C)C)NC(=O)[C@H](Cc2ccc(Cl)c(Cl)c2)NC(=O)[C@H](CCN)NC1=O` [Compound 1481] ({CH2CO}-[Dap]Y(Carboxymethyl)DWV[Bip]E[Orn][dL][Dab][Phe(3,4-Cl2)]VTCA-NH2; thioether N-14): 67.2 nM.

The record behind these values is patent US20250163104A1, “MACROCYCLIC IMMUNOMODULATORS” (priority 2021, published 2025).
